Literature values in US20140004177A1, “COX-2 INHIBITORS AND RELATED COMPOUNDS, AND SYSTEMS AND METHODS FOR DELIVERY THEREOF” (Strategic Science & Technologies, LLC, priority 2010, published 2014).

pKa: 19.7
Compound: CS(=O)(=O)c1ccc(C2=C(c3ccccc3)C(=O)OC2)cc1 [rofecoxib]
